According to patent US10100011B2, “Pentadienoyl piperidine derivative and use thereof” (Industry-Academic Cooperation Foundation, Yonsei University, priority 2014, dated 2018):

Experiments:
C57BL/6J mice = experiment: Inflammatory cytokine concentrations in blood of mice fed high-fat diet (ELISA); assay type: in vivo, mouse; conditions: about 0.05% compound in high-fat diet, 10 weeks
Description: An obesity induction diet used in this experiment was a high-fat diet (HFD: 40% fat calories, 17 g of lard+3% corn oil/100 g diet), and the compositions of diets including the LJ-2501, LJ-2488, LJ-2495, LJ-2496 compounds were identical to that of HFD, except that each of the compounds was included in an amount of about 0.05% (Table 2). As a control drug, an anti-obesity drug, sibutramine (Sibut), was added in an amount of about 0.01% to the high-fat diet and a normal diet group (Chow) was fed with commercial rodent chow.
5-week old 40 male C57BL/6J mice (Orient Bio., Korea) were fed with hard feed and accommodated in a laboratory environment for one week. Subsequently, in accordance with a randomized block method, the mice were randomly grouped into a normal diet group, a high-fat diet control group, two experimental substance groups, and […] and raised for a total of 10 weeks (n=8/group). Diets were supplied with water between 10 am and 11 am every day. An intake amount was measured every day and the body weights of the mice were measured every week. To prevent temporal weight change due to feed intake, feedboxes were removed and, after two hours, the body weights were measured. The experimental animals were fasted for 12 hours or more and then anesthetized with diethyl ether, followed by collecting blood, liver, and visceral adipose tissues (epididymal fat, perirenal fat, mesenteric fat, and retroperitoneal fat). The collected samples were washed with 0.1 M phosphate buffered saline (pH 7.4) and then weighed. Blood samples collected from abdominal aortas were centrifuged at 1000×g for 15 minutes, thereby separating plasma.
The concentrations of TNFα, MCP-1, IL-6, leptin, and insulin in plasma were measured according to an ELISA method using the Mouse Adipokine Magnetic Bead Panel kit (MADKMAG-71K, EMD Millipore Corporation, Mass., USA).

[1] = tested on: genes related to adipose tissue generation and thermogenesis in visceral fat tissue; experiment: Gene (RT-PCR) and protein (Western blotting) expression in visceral (epididymal) fat tissue of mice; assay type: in vivo, mouse; conditions: compound in high-fat diet
Description: 1 ml of a TRIzol solution per 0.1 g of epididymal fat tissue was added to the pulverized tissue, followed by centrifuging at 4° C. and 12,000×g for 10 minutes. A supernatant was transferred into a new tube and then 200 μl of chloroform was added thereto, followed by vortexing. This process was repeated twice and then a supernatant was transferred into a new tube. Subsequently, isopropanol and the supernatant were mixed in a ratio of 1:1 and strongly shook ten times, followed by standing at room temperature for 10 minutes. Subsequently, centrifugation was carried out at 12,000×g and 4° C. for 10 minutes, followed by removing a supernatant and adding 1 ml of 70% ethanol to the remaining precipitate. Subsequently, centrifugation was carried out at 7,500×g and 4° C. for five minutes. Ethanol was removed and then the tube containing an RNA precipitate was dried at room temperature for five minutes. The dried RNA pellet was dissolved in nuclease free water. The concentrations of the extracted RNA samples were measured at wavelengths of 260 nm and 280 nm by means of a UV/VIS spectrophotometer (Beckman Coulter, DU730). In addition, the extracted RNA samples were electrophoresed on an agarose gel to confirm the quality of the RNA samples.
The RNA samples extracted from epididymal fat tissue were subjected to reverse transcription using oligo dT primers and the Superscript reverse transcription enzyme (GIBCO BRL, Gaithersburg, Md., USA), thereby synthesizing cDNAs. Each of the synthesized cDNAs was used as a template and 5′ and 3′ flanking sequences of cDNA of each of genes to be amplified were used as primers, thereby performing PCR. 1 μl of each of amplified PCR products was electrophoresed on a 1% agarose gel and a DNA band was observed.
A predetermined amount of visceral fat or liver tissue was homogenized with liquid nitrogen and a lysis buffer in a mortar and then centrifuged at 13,000 rpm and 4° C. for 20 minutes. Subsequently, a middle layer was collected and subjected to protein quantification according to the Bradford method. 50 μg of a protein was electrophoresed on an SDS polyacryamide gel and then electro-blotted on hyperfilm PVDF. A reaction was carried out using a corresponding antibody and detection was performed using ECL.

[2] = target: T1, human recombinant SIRT1 enzyme (Homo sapiens, UniProt Q96EB6); experiment: SIRT1 activity measurement (SIRT1 Fluorometric Drug Discovery Kit); assay type: biochemical
T1 construct: purchased ENZO Life Sciences Inc., NY, USA BML-AK555
T1 sequence (Q96EB6 1-747): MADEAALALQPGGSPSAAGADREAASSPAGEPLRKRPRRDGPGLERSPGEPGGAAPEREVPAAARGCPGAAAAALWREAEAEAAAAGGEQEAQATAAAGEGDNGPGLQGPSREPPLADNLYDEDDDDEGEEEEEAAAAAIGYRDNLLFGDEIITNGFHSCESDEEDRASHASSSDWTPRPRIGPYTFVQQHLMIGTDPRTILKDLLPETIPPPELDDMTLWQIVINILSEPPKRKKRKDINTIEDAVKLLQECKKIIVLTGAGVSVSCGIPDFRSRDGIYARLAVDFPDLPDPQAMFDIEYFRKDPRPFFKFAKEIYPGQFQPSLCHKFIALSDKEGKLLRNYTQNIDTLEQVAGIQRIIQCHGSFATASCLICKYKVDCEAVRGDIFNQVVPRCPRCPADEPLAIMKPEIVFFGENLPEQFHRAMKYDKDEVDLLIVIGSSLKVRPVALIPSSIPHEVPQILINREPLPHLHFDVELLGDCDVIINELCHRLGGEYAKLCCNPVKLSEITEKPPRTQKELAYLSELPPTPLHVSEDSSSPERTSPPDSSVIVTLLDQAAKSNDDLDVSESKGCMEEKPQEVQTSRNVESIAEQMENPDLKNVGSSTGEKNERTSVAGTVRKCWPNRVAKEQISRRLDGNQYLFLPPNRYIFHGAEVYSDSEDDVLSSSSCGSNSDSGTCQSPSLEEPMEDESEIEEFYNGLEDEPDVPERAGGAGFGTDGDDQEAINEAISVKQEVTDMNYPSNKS
Description: To analyze SIRT1 activity in a test tube, a deacetylation degree of acetylated lysine included in a substrate was measured using an SIRT1 Fluorometric Drug Discovery Kit (BML-AK555, ENZO Life Sciences Inc., NY, USA). 0.067 U/μl of a human recombinant SIRT1 enzyme and a test substance were mixed in a 96-well plate and reacted at 37° C. for 10 minutes. Subsequently, 167 μM substrate [379th to 382nd amino acid peptide of human p53, Arg-His-Lys-Lys(Ac)] and 1667 μM NAD^+ were added thereto, followed by reacting at 37° C. for 30 minutes. To stop the reaction of SIRT1, 50 μL of a developer including 2 mM nicotinamide was added, followed by reacting at 37° C. for 30 minutes. Chromophoric fluorescence intensity was measured at 360 nm excitation and 460 nm emission.

[3] = RT-PCR, levels similar to Chow group

## CSc1ccc(/C=C/C=C/C(=O)N2CCCCC2)cc1 [LJ-2501, (2E,4E)-5-(4-(methylthio)phenyl)-1-(piperine-1-yl)penta-2,4-diene-1-one]
C57BL/6J mice
  blood IL-6 concentration, reduction compared to HFD: 38%
  blood MCP-1 concentration, reduction compared to HFD: 22%
  blood TNF-α concentration, reduction compared to HFD: 25%
  blood leptin concentration, reduction compared to HFD: 25%
[1]; RT-PCR
  expression levels of NRF-1, COX2 and TFAM in visceral fat tissue: increasing
[1]; [3]
  gene expression levels of PGC-1α, SIRT1 and UCP1 in visceral adipose tissue compared to HFD: increased
  mRNA expression of C/EBPα, PPARγ2 and target genes (CD36, FAS, leptin) in epididymal fat tissue compared to HFD: reduced
[1]; Western blotting
  phosphorylation level of CREB proteins in visceral adipose tissue: increased
[2]; in presence of 600 μM compound
  Vmax value of SIRT1: without change
[2]; increasing concentration of compound, human recombinant SIRT1
  concentration at which SIRT1 activity was highest: 600 µM
